In the NIST ThermoML archive (doi:10.1021/acs.jced.6b00750):

Experiment: xn = mol fraction of the nth substance listed
Conditions: Liquid; for mass density: Vibrating wire densiometer; for viscosity: Vibrating wire viscometry

C [methane] + CCCCCCCCCCCCCCCC
Conditions | mass density [kg/m3] | viscosity [mPa·s]
298.15 K, 10230 kPa, x1 = 0.1013 | 781.6 | 3.304
298.15 K, 19830 kPa, x1 = 0.1013 | 786.5 | 3.687
298.21 K, 20070 kPa, x1 = 0.2976 | 780.7 | 3.712
298.21 K, 30320 kPa, x1 = 0.2976 | 786 | 4.196
298.22 K, 10040 kPa, x1 = 0.2021 | 775.4 | 3.308
298.22 K, 19950 kPa, x1 = 0.2021 | 781.3 | 3.742
298.33 K, 13910 kPa, x1 = 0.3979 | 781.1 | 3.321
298.33 K, 20030 kPa, x1 = 0.3979 | 784.6 | 3.548
298.33 K, 30040 kPa, x1 = 0.3979 | 791 | 3.938
323.22 K, 10080 kPa, x1 = 0.1013 | 765.4 | 1.993
323.22 K, 20170 kPa, x1 = 0.1013 | 771.2 | 2.205
323.22 K, 40020 kPa, x1 = 0.1013 | 783.4 | 2.69
323.22 K, 60000 kPa, x1 = 0.1013 | 791.6 | 3.255
323.22 K, 78560 kPa, x1 = 0.1013 | 801.7 | 3.927
323.23 K, 20400 kPa, x1 = 0.2976 | 769.6 | 2.151
323.23 K, 21720 kPa, x1 = 0.2976 | 770.4 | 2.147
323.23 K, 21740 kPa, x1 = 0.2976 | 770.3 | 2.146
323.23 K, 40220 kPa, x1 = 0.2976 | 781.5 | 2.597
323.23 K, 60040 kPa, x1 = 0.2976 | 791.5 | 3.162
323.23 K, 79910 kPa, x1 = 0.2976 | 800.3 | 3.859
323.26 K, 14530 kPa, x1 = 0.3979 | 763.7 | 1.887
323.26 K, 14750 kPa, x1 = 0.3979 | 763.9 | 1.918
323.26 K, 20040 kPa, x1 = 0.3979 | 766.5 | 2.058
323.26 K, 40050 kPa, x1 = 0.3979 | 778.7 | 2.56
323.32 K, 10010 kPa, x1 = 0.2021 | 756.6 | 1.901
323.32 K, 20100 kPa, x1 = 0.2021 | 763.2 | 2.147
323.32 K, 39150 kPa, x1 = 0.2021 | 775.8 | 2.576
373.2 K, 10050 kPa, x1 = 0.2021 | 721.1 | 0.926
373.2 K, 12610 kPa, x1 = 0.2021 | 723.4 | 0.951
373.2 K, 20020 kPa, x1 = 0.2021 | 729.5 | 1.037
373.2 K, 40260 kPa, x1 = 0.2021 | 744.4 | 1.27
373.2 K, 60350 kPa, x1 = 0.2021 | 757.1 | 1.521
373.2 K, 65050 kPa, x1 = 0.2021 | 759.8 | 1.586
373.26 K, 10000 kPa, x1 = 0.1013 | 732.3 | 0.967
373.26 K, 20170 kPa, x1 = 0.1013 | 740.6 | 1.112
373.26 K, 40110 kPa, x1 = 0.1013 | 754.5 | 1.334
373.26 K, 60080 kPa, x1 = 0.1013 | 767.4 | 1.571
373.26 K, 80130 kPa, x1 = 0.1013 | 777.3 | 1.897
373.41 K, 24090 kPa, x1 = 0.2976 | 738.5 | 1.04
373.41 K, 24100 kPa, x1 = 0.2976 | 738.2 | 1.038
373.41 K, 40140 kPa, x1 = 0.2976 | 749.9 | 1.222
373.41 K, 60030 kPa, x1 = 0.2976 | 762.2 | 1.465
373.41 K, 80100 kPa, x1 = 0.2976 | 773.7 | 1.749
373.47 K, 16680 kPa, x1 = 0.3979 | 730.1 | 0.921
373.47 K, 16740 kPa, x1 = 0.3979 | 729.9 | 0.942
373.47 K, 20010 kPa, x1 = 0.3979 | 732.4 | 0.97
373.47 K, 40020 kPa, x1 = 0.3979 | 747.6 | 1.17
373.47 K, 54720 kPa, x1 = 0.3979 | 756.7 | 1.365
373.47 K, 56030 kPa, x1 = 0.3979 | 757.3 | 1.364
423.24 K, 10310 kPa, x1 = 0.2021 | 686.8 | 0.557
423.24 K, 10870 kPa, x1 = 0.2021 | 687.6 | 0.556
423.24 K, 10900 kPa, x1 = 0.2021 | 687.1 | 0.557
423.24 K, 20030 kPa, x1 = 0.2021 | 697.4 | 0.625
423.24 K, 40040 kPa, x1 = 0.2021 | 715.6 | 0.762
423.24 K, 60080 kPa, x1 = 0.2021 | 730.3 | 0.912
423.24 K, 80150 kPa, x1 = 0.2021 | 743.2 | 1.067
423.31 K, 15700 kPa, x1 = 0.1013 | 707.2 | 0.611
423.31 K, 20010 kPa, x1 = 0.1013 | 711.8 | 0.643
423.31 K, 40030 kPa, x1 = 0.1013 | 728 | 0.816
423.31 K, 60000 kPa, x1 = 0.1013 | 744.5 | –
423.31 K, 80070 kPa, x1 = 0.1013 | 754.2 | 1.133
423.58 K, 20510 kPa, x1 = 0.2976 | 703.1 | 0.612
423.58 K, 20550 kPa, x1 = 0.2976 | 703.3 | 0.606
423.58 K, 22750 kPa, x1 = 0.2976 | 705.4 | 0.618
423.58 K, 40090 kPa, x1 = 0.2976 | 720.8 | 0.734
423.58 K, 60240 kPa, x1 = 0.2976 | 735.9 | 0.873
423.58 K, 80360 kPa, x1 = 0.2976 | 748.5 | 1.03
423.94 K, 16530 kPa, x1 = 0.3979 | 696.8 | 0.565
423.94 K, 16610 kPa, x1 = 0.3979 | 697.1 | 0.555
423.94 K, 20030 kPa, x1 = 0.3979 | 700.1 | 0.587
423.94 K, 40010 kPa, x1 = 0.3979 | 718.3 | 0.717
423.94 K, 56150 kPa, x1 = 0.3979 | 730.8 | 0.822
473.17 K, 40030 kPa, x1 = 0.1013 | 705.1 | 0.591
473.17 K, 60040 kPa, x1 = 0.1013 | 721.8 | 0.687
473.17 K, 80060 kPa, x1 = 0.1013 | 735.5 | 0.794
473.36 K, 12980 kPa, x1 = 0.2021 | 656.9 | 0.388
473.36 K, 13010 kPa, x1 = 0.2021 | 656.8 | 0.387
473.36 K, 20070 kPa, x1 = 0.2021 | 666.6 | 0.425
473.36 K, 40070 kPa, x1 = 0.2021 | 688.4 | 0.53
473.36 K, 60040 kPa, x1 = 0.2021 | 706.1 | 0.627
473.36 K, 80030 kPa, x1 = 0.2021 | 720.5 | 0.732
473.4 K, 24480 kPa, x1 = 0.2976 | 676.6 | 0.431
473.4 K, 24500 kPa, x1 = 0.2976 | 676.6 | 0.427
473.4 K, 40130 kPa, x1 = 0.2976 | 693.5 | 0.501
473.4 K, 60110 kPa, x1 = 0.2976 | 710.7 | 0.6
473.4 K, 79930 kPa, x1 = 0.2976 | 724.7 | 0.717
473.68 K, 22720 kPa, x1 = 0.3979 | 673.5 | 0.42
473.68 K, 25730 kPa, x1 = 0.3979 | 676.9 | 0.435
473.68 K, 40080 kPa, x1 = 0.3979 | 692.4 | 0.502
473.68 K, 60000 kPa, x1 = 0.3979 | 709.8 | 0.596
473.68 K, 80230 kPa, x1 = 0.3979 | 724.2 | 0.704
